The nature of this series: Hygroscopicity, VTI vapor sorption analyzer. The format is physicochemical. The method, then: Hygroscopicity data was obtained on a VTI Symmetrical Vapor Sorption Analyzer Model SGA-1. Data was collected at room temperature from 5-95% relative humidity and back, 5% relative humidity change per step. Equilibrium conditions were 0.01 weight percent change in 5 minutes with a maximum equilibration time of 180 minutes. […] When equilibrated back down to 5% RH, the material returned back to approximately its dry weight.

SMILES strings stand for the structures.

Take `Cc1nnc(C(=O)NC(C)(C)c2nc(C(=O)NCc3ccc(F)cc3)c(O)c(=O)n2C)o1`: the “weight increase when equilibrated at 95% RH” value (95% RH at 25° C.) amounted to 1.8%. Also, the “XRPD analysis of the material after the hygroscopicity experiment (phase stability)” value (after 5-95% relative humidity cycle at room temperature) is “had not changed phases”.

The values above are taken from patent US20090136570A1, “Taste-Masked Tablets and Granules” (priority 2006, published 2009).
